Data on one compound can be found in patent US11478478B2, “2,3-disubstituted 1-acyl-4-amino-1,2,3,4-tetrahydroquinoline derivatives and their use as bromodomain inhibitors” (GLAXOSMITHKLINE INTELLECTUAL PROPERTY (NO.2) LIMITED, priority 2013, dated 2022).

This test relates to Bromodomains BRD2, BRD3, BRD4 and BRDT. Kind of test: Binding of the fluoroligand to mutated versus non-mutated bromodomain. On the set-up: species or system Human. As to conditions: single residue mutations in the acetyl lysine binding pocket. Here is the method: Time Resolved Fluorescence Resonance Energy Transfer (TR-FRET) Assay Binding was assessed using a time resolved fluorescent resonance energy transfer binding assay. This utilises a 6 His purification tag at the N-terminal of the proteins as an epitope for an anti-6 His antibody labeled with Europium chelate (PerkinElmer AD0111) allowing binding of the Europium to the proteins which acts as the donor fluorophore. A small molecule, high affinity binder of the bromodomains BRD2, BRD3, BRD4 and BRDT has been labeled with Alexa Fluor647 (Reference Compound X) and this acts as the acceptor in the FRET pair.
The binding of the compounds of formula (I) to Bromodomains BRD2, BRD3, BRD4 and BRDT was assessed using mutated proteins to detect differential binding to either Binding Domain 1 (BD1) or Binding Domain 2 (BD2) on the bromodomain. These single residue mutations in the acetyl lysine binding pocket greatly lower the affinity of the fluoroligand (Reference Compound X) for the mutated domain (>1000 fold selective for the non-mutated domain). Therefore in the final assay conditions, binding of the fluoroligand to the mutated domain cannot be detected and subsequently the assay is suitable to determine the binding of compounds to the single non-mutated bromodomain. […]

In the case of `COc1ccc2c(c1)C(c1ccc(Cl)cc1)=N[C@@H](CC(=O)NCCCCCNC(=O)CCCCCC1(C)/C(=C/C=C/C=C/C3=[N+](CCCCS(=O)(=O)O)c4ccc(S(=O)(=O)O)cc4C3(C)C)N(CCCCS(=O)(=O)[O-])c3ccc(S(=O)(=O)O)cc31)c1nnc(C)n1-2` (stereo partly shown) [Reference Compound X], the “selectivity of the fluoroligand for the non-mutated domain over the mutated domain” value is > 1000 fold.
